Test results reported in patent US12251364B2, “Treating non-alcoholic steatohepatitis with cck inhibitors” (priority 2018, dated 2025).
“Also recorded” adds a separate entry of the source.

Experiments:
[1] = system: mice on 75%-CDE diet (NASH, fibrosis and HCC); test: Prevention study: CDE diet-induced NASH in mice, proglumide in drinking water from start of diet; type: in vivo, mouse (female C57BL/6)
Procedure: All mouse studies were performed in an ethical fashion and approved by the Institutional Animal Care and Use Committee, protocol #2016-1193 for animal research by Georgetown University. Female C57BL/6 mice (body weight of >20 g) were obtained from Charles River Laboratory (Germantown, MD). Mice were housed with five per cage with filter-top cages and housing light cycled q12 hrs; on-off. […] The first group received a modified Choline Deficient Diet with 75% Ethionine supplemented diet (CDE) as previously described by […] et al. “A modified choline-deficient, ethionine-supplemented diet reduces morbidity and retains a liver progenitor cell response in mice,” Dis Model Mech 8:1635-1641 (2015). […] The control mice received the same diet with choline. Both diets contained casein as the major source of protein and lard (saturated fat) as the primary source of fat. The diet composition is shown in Table 1 and is very similar to the Western diet (Roberts et al. “Western diet-induced hepatic steatosis and alterations in the liver transcriptome in adult Brown-Norway rats,” BMC Gastroenterol. 15:151 (2015)) where the diet consists of a high fat and high sugar and is often used in experimental animal diets to induce NAFLD. The food intake was measured by weighing food consumed to assure mice were eating equal amounts of food in each group, and animals ate ad libitum. Some mice on both diets were treated with the CCK receptor antagonist proglumide (Tocris Bioscience, Bristol, UK) at a concentration of 0.1 mg/ml and the estimated amount ingested per mouse was 30 mg/kg/d that was previously shown to block the CCK receptor (Smith et al. “Cholecystokinin receptor antagonist halts progression of pancreatic cancer precursor lesions and fibrosis in mice,” Pancreas 43:1050-1059 (2014)). Another cohort received untreated drinking water. The study design included two different parts: a “prevention study” and a “reversal study” (FIG. 1). In the prevention study, the goal was to determine if treatment with proglumide could prevent NASH, fibrosis and HCC if started at the same time of the initiation of the high fat CDE diet. Initially mice were randomized into one of four treatment group (FIG. 1). Sixty-five mice received the 75%-CDE diet and untreated drinking water (CDE/Reg). Of these (N=5 each) mice were ethically euthanized and livers dissected and analyzed histologically to assess for evidence of NASH at weeks 4 and 8. When NASH was becoming apparent, mice were continued on this diet and some (N=10) were euthanized at week 12 and some (N=25) were euthanized at week 18. Five mice died in the CDE/Reg diet in the first 12 weeks. A parallel cohort of mice (N=25) were also given the CDE diet but their drinking water was treated with the CCK-receptor antagonist proglumide. In this cohort, some (N=10) were euthanized, blood drawn, and liver examined histologically at week 12. The remainder (N=15) were euthanized and examined at week 18 to compare to the CDE/Reg group. Twenty mice each were treated with the control diet, and half (N=10) in this group received proglumide water and half received untreated drinking water. Half of the control mice were euthanized at the first time point of 12 weeks and the remainder was euthanized at the end of the experiment at 18 weeks. Subgroups of mice were ethically euthanized after CO2 asphyxiation and cervical dislocation at one of 4 different time points: weeks 4, 8, 12, or 18. Blood was collected by pericardiac puncture and centrifuged. Serum was analyzed by VRL Laboratories (Gaithersburg, MD). The following liver tests were evaluated and the normal range for mouse is shown: Alkaline phosphatase (35-275 u/L); Alanine aminotransferase, ALT (17-129 u/L); Aspartate aminotransferase, AST (46-392 u/L); and total bilirubin (0-0.9 mg/dL). The liver tissues were fixed in 4% paraformaldehyde, paraffin embedded, and 8 μm sections were cut. Mounted sections were stained with Hematoxylin & Eosin or Masson's trichrome. […]

[2] = system: mice on CDE diet with established NASH; test: Reversal (recovery) study: established NASH after 12 weeks of CDE diet, then proglumide for 6 weeks; type: in vivo, mouse (female C57BL/6)
Procedure: All mouse studies were performed in an ethical fashion and approved by the Institutional Animal Care and Use Committee, protocol #2016-1193 for animal research by Georgetown University. Female C57BL/6 mice (body weight of >20 g) were obtained from Charles River Laboratory (Germantown, MD). Mice were housed with five per cage with filter-top cages and housing light cycled q12 hrs; on-off. […] The first group received a modified Choline Deficient Diet with 75% Ethionine supplemented diet (CDE) as previously described by […] et al. “A modified choline-deficient, ethionine-supplemented diet reduces morbidity and retains a liver progenitor cell response in mice,” Dis Model Mech 8:1635-1641 (2015). […] The control mice received the same diet with choline. Both diets contained casein as the major source of protein and lard (saturated fat) as the primary source of fat. The diet composition is shown in Table 1 and is very similar to the Western diet (Roberts et al. “Western diet-induced hepatic steatosis and alterations in the liver transcriptome in adult Brown-Norway rats,” BMC Gastroenterol. 15:151 (2015)) where the diet consists of a high fat and high sugar and is often used in experimental animal diets to induce NAFLD. The food intake was measured by weighing food consumed to assure mice were eating equal amounts of food in each group, and animals ate ad libitum. Some mice on both diets were treated with the CCK receptor antagonist proglumide (Tocris Bioscience, Bristol, UK) at a concentration of 0.1 mg/ml and the estimated amount ingested per mouse was 30 mg/kg/d that was previously shown to block the CCK receptor (Smith et al. “Cholecystokinin receptor antagonist halts progression of pancreatic cancer precursor lesions and fibrosis in mice,” Pancreas 43:1050-1059 (2014)). Another cohort received untreated drinking water. The reversal study, took mice that had been on the CDE diet and untreated water (CDE/Reg) for 12 weeks (a time determined to result in the mice having NASH histologically and biochemical hepatitis). Mice were randomly allocated to one of two groups at 12 weeks. The first group (N=15) continued on the CDE diet and untreated water and the second group (N=15) also continued on the CDE diet but then received proglumide in the drinking water at the same concentration as the prevention study (0.1 mg/ml). The purpose of the reversal study was to see if proglumide could reverse any of the histologic and biochemical abnormalities of NASH from the 12-week CDE/regular water diet. The other group continued on the CDE diet with untreated drinking water. The animals in each group were weighed weekly. At the termination of the experiment the animal body weight and liver weight were recorded. Subgroups of mice were ethically euthanized after CO2 asphyxiation and cervical dislocation at one of 4 different time points: weeks 4, 8, 12, or 18. Blood was collected by pericardiac puncture and centrifuged. Serum was analyzed by VRL Laboratories (Gaithersburg, MD). The following liver tests were evaluated and the normal range for mouse is shown: Alkaline phosphatase (35-275 u/L); Alanine aminotransferase, ALT (17-129 u/L); Aspartate aminotransferase, AST (46-392 u/L); and total bilirubin (0-0.9 mg/dL). The liver tissues were fixed in 4% paraformaldehyde, paraffin embedded, and 8 μm sections were cut. Mounted sections were stained with Hematoxylin & Eosin or Masson's trichrome. A Liver pathologist blinded to the treatments and time period scored tissues for inflammation, fibrosis, steatosis, and whether there was evidence of dysplastic nodules or cancer (Table 2). Histology was scored for grade of inflammation (0-3), fibrosis (0-4), steatosis (0-3), balloon degeneration (0-2) and dysplasia or cancer (0-2). For analysis, a NASH score was defined as the combination of the steatosis and the balloon degeneration score. […]

[3] = system: mice on control high fat diet; test: Control high fat diet with choline, proglumide-treated versus untreated water; type: in vivo, mouse (female C57BL/6)
Procedure: All mouse studies were performed in an ethical fashion and approved by the Institutional Animal Care and Use Committee, protocol #2016-1193 for animal research by Georgetown University. Female C57BL/6 mice (body weight of >20 g) were obtained from Charles River Laboratory (Germantown, MD). Mice were housed with five per cage with filter-top cages and housing light cycled q12 hrs; on-off.
Mice were fed one of two custom high fat diets from MP Biomedicals, LLC (Solon, Ohio). The first group received a modified Choline Deficient Diet with 75% Ethionine supplemented diet (CDE) as previously described by Passman et al. “A modified choline-deficient, ethionine-supplemented diet reduces morbidity and retains a liver progenitor cell response in mice,” Dis Model Mech 8:1635-1641 (2015). […] The control mice received the same diet with choline. Both diets contained casein as the major source of protein and lard (saturated fat) as the primary source of fat. […] The food intake was measured by weighing food consumed to assure mice were eating equal amounts of food in each group, and animals ate ad libitum. […]
Subgroups of mice were ethically euthanized after CO2 asphyxiation and cervical dislocation at one of 4 different time points: weeks 4, 8, 12, or 18. […] Serum was analyzed by VRL Laboratories (Gaithersburg, MD). The following liver tests were evaluated and the normal range for mouse is shown: Alkaline phosphatase (35-275 u/L); Alanine aminotransferase, ALT (17-129 u/L); Aspartate aminotransferase, AST (46-392 u/L); and total bilirubin (0-0.9 mg/dL).
The liver tissues were fixed in 4% paraformaldehyde, paraffin embedded, and 8 μm sections were cut. […] A Liver pathologist blinded to the treatments and time period scored tissues for inflammation, fibrosis, steatosis, and whether there was evidence of dysplastic nodules or cancer (Table 2). Histology was scored for grade of inflammation (0-3), fibrosis (0-4), steatosis (0-3), balloon degeneration (0-2) and dysplasia or cancer (0-2). […]

[4] = PIVENS trial; cited from earlier work
[5] = CDE/Prog vs CDE/Reg, weeks 12 and 18
[6] = CDE/Reg 12 weeks then proglumide water 6 weeks

In the case of `CCCN(CCC)C(=O)C(CCC(=O)O)NC(=O)c1ccccc1` (centres unmarked) [proglumide], the “serum AST levels” value ([1]; CDE diet + proglumide 0.1 mg/ml in drinking water from day 0 (Prevention), vs CDE/Reg) is reported as “restored to near normal; also recorded: at or near normal levels”, the “ALT serum levels, week 12” value ([1]; CDE diet + proglumide water from day 0, week 12) is reported as “did not prevent elevation” and the “ALT serum levels, week 18” value ([1]; CDE diet + proglumide water from day 0, week 18) is reported as “did decrease ALT values; also recorded: able to prevent this increase only after 18 weeks”. For the same compound, the serum total bilirubin ([1]; CDE diet + proglumide water from day 0, weeks 12 and 18, vs CDE/Reg) was “completely prevented; also recorded: prevented bilirubin level increases”, the “alkaline phosphatase blood levels” value ([1]; CDE diet + proglumide water, vs CDE/Reg) was “not prevented or reversed; also recorded: did not decrease alkaline phosphatase” and the “histologic features/changes of NASH” value [1, 5] was “significantly decreased; also recorded: prevented”. For the same compound, the histologic fibrosis score [1, 5] was “prevented; also recorded: decreased fibrosis”, the histologic inflammation score [1, 5] was “prevented; also recorded: marked decrease in inflammation; also recorded: decreased inflammation” and the histologic steatosis score [1, 5] was “prevented; also recorded: decreased steatosis”. The balloon degeneration ([1]; CDE/Prog, week 12 liver histology) was “minimal or no balloon degeneration”, the “mice with dysplastic nodules or HCC” value ([1]; week 18, CDE/Prog prevention arm N=15, CDE/Reg 8 of 23) was “none and no dysplasia or HCC” and the “serum AST levels” value ([2]; CDE/Reg 12 weeks then CDE/Prog 6 weeks (Recovery)) was “significantly decreased”. The “HCC or dysplastic nodules” value ([2]; CDE/Reg 12 weeks then CDE/proglumide 6 weeks, N=15, week 18) was “no evidence of HCC or dysplastic nodules and none”, the alkaline phosphatase levels [2, 6] was “not prevented or reversed” and the serum total bilirubin [2, 6] was “returned to the normal range; also recorded: decreased bilirubin”. For the same compound, the ALT serum levels ([2]; Recovery vs CDE/Reg for 18 full weeks) was “this difference was not significant”, the histologic fibrosis score ([2]; Recovery, week 18) was “able to decrease; also recorded: improved” and the histologic inflammation score ([2]; Recovery, week 18) was “able to decrease; also recorded: improved”. For the same compound, the “liver blood tests and histology” value ([2]; proglumide for 6 weeks while continuing the CDE diet) was “improved significantly”, the “abnormalities in hepatic blood tests or weight” value ([3]; control diet with proglumide vs untreated drinking water) was “no evidence of abnormalities” and the body weight ([3]; control diet, proglumide water vs untreated water) was “did not weigh more”. For the same compound, the liver histology ([3]; control diet, proglumide water vs untreated water, week 18) was “no evidence of NASH; also recorded: No differences”.

In the case of Vitamin E, the reversal of fibrosis [4] is listed as “neither compound statistically reversed fibrosis”.
